Data from the NIST ThermoML archive (doi:10.1016/j.jct.2017.07.012).
Numbers after ± are expanded uncertainties.

What was measured:
[1] = activity coefficient (dimensionless); of the first substance listed, at infinite dilution; xn = mol fraction of the nth substance listed; conditions: 101.33 kPa, Liquid, Chromatography, x1 = 0
[2] = 101.33 kPa, Liquid, Vibrating tube method

| Structure (SMILES) | activity coefficient ([1]; 323.15 K) | activity coefficient ([1]; 333.15 K) | activity coefficient ([1]; 343.15 K) | activity coefficient ([1]; 353.15 K) | mass density ([2]; 303.15 K) [kg/m3] | mass density ([2]; 313.15 K) [kg/m3] | mass density ([2]; 323.15 K) [kg/m3] | mass density ([2]; 333.15 K) [kg/m3] | mass density ([2]; 343.15 K) [kg/m3] | mass density ([2]; 353.15 K) [kg/m3] | activity coefficient ([1]; 303.15 K) | activity coefficient ([1]; 313.15 K) |
| --- | --- | --- | --- | --- | --- | --- | --- | --- | --- | --- | --- | --- |
| Cc1ccccc1C [1,2-dimethylbenzene] + CCCCn1cc[n+](C)c1.[O-][Cl+3]([O-])([O-])[O-] | 4.09 ± 0.43 | 4.16 ± 0.44 | 4.27 ± 0.45 | 4.37 ± 0.46 | – | – | – | – | – | – | – | – |
| Cc1cccc(C)c1 [1,3-dimethylbenzene] + CCCCn1cc[n+](C)c1.[O-][Cl+3]([O-])([O-])[O-] | 4.99 ± 0.52 | 5.08 ± 0.53 | 5.28 ± 0.55 | 5.36 ± 0.56 | – | – | – | – | – | – | – | – |
| Cc1ccc(C)cc1 [1,4-dimethylbenzene] + CCCCn1cc[n+](C)c1.[O-][Cl+3]([O-])([O-])[O-] | 4.82 ± 0.51 | 4.91 ± 0.52 | 5.13 ± 0.54 | 5.21 ± 0.55 | – | – | – | – | – | – | – | – |
| C1COCCO1 [1,4-dioxane] + CCCCn1cc[n+](C)c1.[O-][Cl+3]([O-])([O-])[O-] | 1 ± 0.1 | 1.02 ± 0.1 | 1.1 ± 0.11 | 1.14 ± 0.12 | – | – | – | – | – | – | – | – |
| CCCCn1cc[n+](C)c1.[O-][Cl+3]([O-])([O-])[O-] [1-butyl-3-methylimidazolium perchlorate] | – | – | – | – | 1247.87 ± 2.4 | 1240.83 ± 2.4 | 1233.88 ± 2.4 | 1227.01 ± 2.4 | 1220.19 ± 2.4 | 1213.44 ± 2.4 | – | – |
| CC(C)CC(C)(C)C [2,2,4-trimethylpentane] + CCCCn1cc[n+](C)c1.[O-][Cl+3]([O-])([O-])[O-] | 107 ± 11 | 119 ± 12 | 122 ± 13 | 125 ± 13 | – | – | – | – | – | – | 100 ± 11 | 102 ± 11 |
| CC(C)CO [2-methyl-1-propanol] + CCCCn1cc[n+](C)c1.[O-][Cl+3]([O-])([O-])[O-] | 2.9 ± 0.3 | 2.67 ± 0.28 | 2.48 ± 0.26 | 2.32 ± 0.24 | – | – | – | – | – | – | – | – |
| CC(C)CCO [3-methylbutan-1-ol] + CCCCn1cc[n+](C)c1.[O-][Cl+3]([O-])([O-])[O-] | – | 3.49 ± 0.37 | 3.21 ± 0.34 | 2.97 ± 0.31 | – | – | – | – | – | – | – | – |
| CC(C)=O [acetone] + CCCCn1cc[n+](C)c1.[O-][Cl+3]([O-])([O-])[O-] | 0.94 ± 0.1 | 0.98 ± 0.1 | 1.05 ± 0.11 | 1.08 ± 0.11 | – | – | – | – | – | – | 0.84 ± 0.09 | 0.91 ± 0.09 |
| CC#N [acetonitrile] + CCCCn1cc[n+](C)c1.[O-][Cl+3]([O-])([O-])[O-] | 0.63 ± 0.07 | 0.65 ± 0.07 | 0.67 ± 0.07 | 0.69 ± 0.07 | – | – | – | – | – | – | 0.61 ± 0.07 | 0.62 ± 0.07 |
| c1ccccc1 [benzene] + CCCCn1cc[n+](C)c1.[O-][Cl+3]([O-])([O-])[O-] | 1.97 ± 0.21 | 2 ± 0.21 | 2.08 ± 0.22 | 2.17 ± 0.23 | – | – | – | – | – | – | 1.78 ± 0.19 | 1.82 ± 0.19 |
| CCCCO [butan-1-ol] + CCCCn1cc[n+](C)c1.[O-][Cl+3]([O-])([O-])[O-] | – | 2.73 ± 0.29 | 2.49 ± 0.26 | 2.39 ± 0.25 | – | – | – | – | – | – | – | – |
| CCC(C)O (centres undefined) [butan-2-ol] + CCCCn1cc[n+](C)c1.[O-][Cl+3]([O-])([O-])[O-] | 2.66 ± 0.28 | 2.61 ± 0.27 | 2.47 ± 0.26 | 2.37 ± 0.25 | – | – | – | – | – | – | – | 2.91 ± 0.31 |
| C1CCCCC1 [cyclohexane] + CCCCn1cc[n+](C)c1.[O-][Cl+3]([O-])([O-])[O-] | 35.2 ± 3.7 | 35.4 ± 3.7 | 36.2 ± 3.8 | 37.5 ± 4 | – | – | – | – | – | – | 34.5 ± 3.6 | 34.6 ± 3.6 |
| C1=CCCCC1 [cyclohexene] + CCCCn1cc[n+](C)c1.[O-][Cl+3]([O-])([O-])[O-] | 14.7 ± 1.6 | 14.6 ± 1.5 | 14.4 ± 1.5 | 14.2 ± 1.5 | – | – | – | – | – | – | 15.1 ± 1.6 | 14.8 ± 1.6 |
| CCCCCCCCCC [decane] + CCCCn1cc[n+](C)c1.[O-][Cl+3]([O-])([O-])[O-] | 217 ± 23 | 204 ± 22 | 200 ± 21 | 192 ± 20 | – | – | – | – | – | – | 226 ± 24 | 219 ± 23 |
| ClCCl [dichloromethane] + CCCCn1cc[n+](C)c1.[O-][Cl+3]([O-])([O-])[O-] | 0.96 ± 0.1 | 1.01 ± 0.1 | 1.1 ± 0.11 | 1.13 ± 0.12 | – | – | – | – | – | – | 0.84 ± 0.09 | 0.91 ± 0.09 |
| CCO [ethanol] + CCCCn1cc[n+](C)c1.[O-][Cl+3]([O-])([O-])[O-] | 1.59 ± 0.17 | 1.5 ± 0.16 | 1.45 ± 0.15 | 1.44 ± 0.15 | – | – | – | – | – | – | 1.67 ± 0.17 | 1.59 ± 0.17 |

| Structure (SMILES) | activity coefficient ([1]; 323.15 K) | activity coefficient ([1]; 333.15 K) | activity coefficient ([1]; 343.15 K) | activity coefficient ([1]; 353.15 K) | mass density ([2]; 303.15 K) [kg/m3] | mass density ([2]; 313.15 K) [kg/m3] | mass density ([2]; 323.15 K) [kg/m3] | mass density ([2]; 333.15 K) [kg/m3] | mass density ([2]; 343.15 K) [kg/m3] | mass density ([2]; 353.15 K) [kg/m3] | activity coefficient ([1]; 303.15 K) | activity coefficient ([1]; 313.15 K) |
| --- | --- | --- | --- | --- | --- | --- | --- | --- | --- | --- | --- | --- |
| CCOC(C)=O [ethyl acetate] + CCCCn1cc[n+](C)c1.[O-][Cl+3]([O-])([O-])[O-] | 2.46 ± 0.26 | 2.54 ± 0.27 | 2.69 ± 0.28 | 2.78 ± 0.29 | – | – | – | – | – | – | 2.22 ± 0.23 | 2.31 ± 0.24 |
| CCc1ccccc1 [ethylbenzene] + CCCCn1cc[n+](C)c1.[O-][Cl+3]([O-])([O-])[O-] | 5.05 ± 0.53 | 5.11 ± 0.54 | 5.29 ± 0.56 | 5.35 ± 0.56 | – | – | – | – | – | – | – | – |
| CCCCCCC [heptane] + CCCCn1cc[n+](C)c1.[O-][Cl+3]([O-])([O-])[O-] | 99.1 ± 10 | 108 ± 11 | 115 ± 12 | 121 ± 13 | – | – | – | – | – | – | 85.9 ± 9.1 | 91.6 ± 9.7 |
| CCCCCC [hexane] + CCCCn1cc[n+](C)c1.[O-][Cl+3]([O-])([O-])[O-] | 98 ± 10 | 107 ± 11 | 112 ± 12 | 118 ± 12 | – | – | – | – | – | – | 81.7 ± 8.6 | 89.2 ± 9.4 |
| CO [methanol] + CCCCn1cc[n+](C)c1.[O-][Cl+3]([O-])([O-])[O-] | 1.05 ± 0.11 | 1.02 ± 0.1 | 1.01 ± 0.1 | 1 ± 0.1 | – | – | – | – | – | – | 1.07 ± 0.11 | 1.06 ± 0.11 |
| CC1CCCCC1 [methylcyclohexane] + CCCCn1cc[n+](C)c1.[O-][Cl+3]([O-])([O-])[O-] | 47 ± 5 | 47.3 ± 5 | 47.3 ± 5 | 47.8 ± 5 | – | – | – | – | – | – | 46.5 ± 4.9 | 46.7 ± 4.9 |
| CCCCCCCCC [nonane] + CCCCn1cc[n+](C)c1.[O-][Cl+3]([O-])([O-])[O-] | 142 ± 15 | 137 ± 14 | 135 ± 14 | 133 ± 14 | – | – | – | – | – | – | 151 ± 16 | 142 ± 15 |
| CCCCCCCC [octane] + CCCCn1cc[n+](C)c1.[O-][Cl+3]([O-])([O-])[O-] | 119 ± 12 | 119 ± 13 | 122 ± 13 | 127 ± 13 | – | – | – | – | – | – | 109 ± 12 | 111 ± 12 |
| CCCCCO [pentan-1-ol] + CCCCn1cc[n+](C)c1.[O-][Cl+3]([O-])([O-])[O-] | – | 3.88 ± 0.41 | 3.55 ± 0.37 | 3.23 ± 0.34 | – | – | – | – | – | – | – | – |
| CCCO [propan-1-ol] + CCCCn1cc[n+](C)c1.[O-][Cl+3]([O-])([O-])[O-] | 2.05 ± 0.22 | 1.99 ± 0.21 | 1.87 ± 0.2 | 1.82 ± 0.19 | – | – | – | – | – | – | – | – |
| CC(C)O [propan-2-ol] + CCCCn1cc[n+](C)c1.[O-][Cl+3]([O-])([O-])[O-] | 2.06 ± 0.22 | 2.06 ± 0.22 | 1.93 ± 0.2 | 1.92 ± 0.2 | – | – | – | – | – | – | 2.27 ± 0.24 | 2.18 ± 0.23 |
| C=Cc1ccccc1 [styrene] + CCCCn1cc[n+](C)c1.[O-][Cl+3]([O-])([O-])[O-] | – | 2.29 ± 0.24 | 2.42 ± 0.25 | 2.5 ± 0.26 | – | – | – | – | – | – | – | – |
| ClC(Cl)(Cl)Cl [tetrachloromethane] + CCCCn1cc[n+](C)c1.[O-][Cl+3]([O-])([O-])[O-] | 4.1 ± 0.43 | 4.22 ± 0.44 | 4.6 ± 0.48 | 4.67 ± 0.49 | – | – | – | – | – | – | 3.61 ± 0.38 | 3.93 ± 0.41 |
| C1CCOC1 [tetrahydrofuran] + CCCCn1cc[n+](C)c1.[O-][Cl+3]([O-])([O-])[O-] | 1.67 ± 0.17 | 1.94 ± 0.2 | 1.94 ± 0.2 | 2.06 ± 0.22 | – | – | – | – | – | – | 1.5 ± 0.16 | 1.57 ± 0.16 |
| Cc1ccccc1 [toluene] + CCCCn1cc[n+](C)c1.[O-][Cl+3]([O-])([O-])[O-] | 3.1 ± 0.33 | 3.14 ± 0.33 | 3.29 ± 0.35 | 3.38 ± 0.36 | – | – | – | – | – | – | – | 2.96 ± 0.31 |
| ClC(Cl)Cl [trichloromethane] + CCCCn1cc[n+](C)c1.[O-][Cl+3]([O-])([O-])[O-] | 0.93 ± 0.09 | 0.98 ± 0.1 | 1.1 ± 0.11 | 1.16 ± 0.12 | – | – | – | – | – | – | 0.78 ± 0.08 | 0.87 ± 0.09 |
| O [water] + CCCCn1cc[n+](C)c1.[O-][Cl+3]([O-])([O-])[O-] | – | 1.02 ± 0.1 | 1.01 ± 0.1 | 1 ± 0.1 | – | – | – | – | – | – | – | – |
